According to US10172355B2, “Safened herbicidal compositions including 4-amino-3-chloro-5-fluoro-6-(4-chloro-2-fluoro-3-methoxyphenyl)pyridine-2-carboxylic acid or a derivative thereof for use in rice” (Dow AgroSciences LLC, priority 2012, dated 2019):
Where two headings read alike, the source gives them in different places.

Legend:
[1] = test system: ORYSA=Orysa sativa, Rice; test: Postemergence foliar-applied herbicides and safeners in direct-seeded rice, visual injury; assay type: in vivo; details: for Visual crop injury (%) at 140 g/ha: Oryza sativa, 480 h, read-out: Visual Injury (%) - 20 DAA ORYSA-‘Clearfield 171’ Obs, foliar, Compound A form 140 g ae/ha alone; for Visual crop injury (%) at 140 g/ha / Visual Injury (%) - 21 DAA ORYSA-‘Clearfield 171’ Obs / Visual Injury (%) - 21 DAA ORYSA-‘Neptune’ Obs / Visual Injury (%) - 21 DAA ORYSA-‘Wells’ Obs: foliar; for Visual Injury (%) - 21 DAA ORYSA-‘Clearfield 171’ Obs / Visual Injury (%) - 21 DAA ORYSA-‘Neptune’ Obs / Visual Injury (%) - 21 DAA ORYSA-‘Wells’ Obs: Compound A form 70 g ae/ha alone, Tables 1,2,7,8; for Mean Visual Injury (%) - 20-22 DAA ORYSA ‘Clearfield 171’ / Mean Visual Injury (%) - 20-22 DAA ORYSA ‘Wells’: post-emergence foliar
Text: (§1) Seeds or nutlets of the desired test plant species were planted in a soil matrix prepared by mixing a loam or sandy loam soil (e.g., 28.6 percent silt, 18.8 percent clay, and 52.6 percent sand, with a pH of about 5.8 and an organic matter content of about 1.8 percent) and calcareous grit in an 80 to 20 ratio. The soil matrix was contained in plastic pots with a surface area of 84.6 square centimeters (cm^2). When required to ensure good germination and healthy plants, a fungicide treatment and/or other chemical or physical treatment was applied. The plants were grown for 8-22 days in a greenhouse with an approximate 14 hr photoperiod which was maintained at about 29° C. during the day and 26° C. during the night. Nutrients (Peters Excel 15-5-15 5-Ca 2-Mg and iron chelate) were applied in the irrigation solution as needed and water was added on a regular basis. Supplemental lighting was provided with overhead metal halide 1000-Watt lamps as necessary. The plants were employed for testing when they reached the second or third true leaf stage.
(§2) Treatments consisted of the acid or esters of 4-amino-3-chloro-5-fluoro-6-(4-chloro-2-fluoro-3-methoxy-phenyl)pyridine-2-carboxylic acid (compound A) and various safener components alone and in combination. Forms of compound A were applied on an acid equivalent basis. Safener components were applied on an active ingredient or acid equivalent basis depending on the compound.
(§3) Treatment requirements were calculated based upon the rates being tested, the concentration of active ingredient or acid equivalent in the formulation, and a 12 mL application volume at a rate of 187 L/ha.
(§4) For treatments comprised of formulated compounds, measured amounts of compounds were placed individually in 25 mL glass vials and diluted in a volume of 1.25% (v/v) Agri-dex crop oil concentrated to obtain 12× stock solutions. […] Application solutions were prepared by adding an appropriate amount of each stock solution (e.g., 1 mL) and diluted to the appropriate final concentrations with the addition of 10 mL of an aqueous mixture of 1.25% (v/v) Agri-dex crop oil concentrate so that the final spray solutions contained 1.25% (v/v) Agri-dex crop oil concentrate.
(§5) For treatments comprised of technical compounds, weighed amounts were placed individually in 25 mL glass vials and dissolved in a volume of 97:3 v/v acetone/DMSO to obtain 12× stock solutions. […] Application solutions were prepared by adding an appropriate amount of each stock solution (e.g., 1 mL) and diluted to the appropriate final concentrations with the addition of 10 mL of an aqueous mixture of 1.5% (v/v) Agri-dex crop oil concentrate so that the final spray solutions contained 1.25% (v/v) Agri-dex crop oil concentrate. When technical materials were used, the concentrated stock solutions were added to the spray solutions so that the final acetone and DMSO concentrations of the application solutions were […], respectively.
(§6) For treatments comprised of formulated and technical compounds, weighed amounts of the technical materials were placed individually in 25 mL glass vials and dissolved in a volume of 97:3 v/v acetone/DMSO to obtain 12× stock solutions, and measured amounts of the formulated compounds were placed individually in 25 mL glass vials and diluted in a volume of 1.5% (v/v) Agri-dex crop oil concentrate or water to obtain 12× stock solutions. […] Application solutions were prepared by adding an appropriate amount of each stock solution (e.g., 1 mL) and diluted to the appropriate final concentrations with the addition of an appropriate amount of an aqueous mixture of 1.5% (v/v) Agri-dex crop oil concentrate so that the final spray solutions contained 1.25% (v/v) Agri-dex crop oil concentrate. When required, additional water and/or 97:3 v/v acetone/DMSO was added to individual application solutions so that the final acetone and DMSO concentrations of the application solutions being compared were 8.1% and 0.25%, respectively. […]

[2] = test system: ECHCG=Echinochloa crus-galli; test: Postemergence foliar-applied herbicides and safeners, visual injury of weed; assay type: in vivo; details: for pest or weed control at 140 g/ha: Echinochloa crus-galli, foliar, 480 h, read-out: Visual Injury (%) - 20 DAA ECHCG Obs, foliar, Compound A form 140 g ae/ha alone; for Mean Visual Injury (%) - 20-22 DAA ECHCG: post-emergence foliar
Text: as §1, §2, §3, §4, §5, §6

`COc1c(Cl)ccc(-c2nc(C(=O)O)c(Cl)c(N)c2F)c1F` [Acid, 4-amino-3-chloro-6-(4-chloro-2-fluoro-3-methoxyphenyl)-5-fluoropyridine-2-carboxylic acid] was tested, and the Visual crop injury (%) at 140 g/ha ([1]; trial of Tables 3,4,6,10,12,14) was 43%, the Visual crop injury (%) at 140 g/ha ([1]; trial of Tables 5,9,11,13) was 38% and the “Visual Injury (%) - 21 DAA ORYSA-‘Clearfield 171’ Obs” value [1] was 22%. For the same molecule, the “Visual Injury (%) - 21 DAA ORYSA-‘Neptune’ Obs” value [1] was 40%, the “Visual Injury (%) - 21 DAA ORYSA-‘Wells’ Obs” value [1] was 12% and the “Mean Visual Injury (%) - 20-22 DAA ORYSA ‘Clearfield 171’” value ([1]; 2 g ae/ha) was 0%. The “Mean Visual Injury (%) - 20-22 DAA ORYSA ‘Wells’” value ([1]; 2 g ae/ha) was 0%, the “Mean Visual Injury (%) - 20-22 DAA ORYSA ‘Clearfield 171’” value ([1]; 4 g ae/ha) was 0% and the “Mean Visual Injury (%) - 20-22 DAA ORYSA ‘Wells’” value ([1]; 4 g ae/ha) was 0%. The “Mean Visual Injury (%) - 20-22 DAA ORYSA ‘Clearfield 171’” value ([1]; 8 g ae/ha) was 2%, the “Mean Visual Injury (%) - 20-22 DAA ORYSA ‘Wells’” value ([1]; 8 g ae/ha) was 0% and the “Mean Visual Injury (%) - 20-22 DAA ORYSA ‘Clearfield 171’” value ([1]; 16 g ae/ha) was 11%. The “Mean Visual Injury (%) - 20-22 DAA ORYSA ‘Wells’” value ([1]; 16 g ae/ha) was 7%, the “Mean Visual Injury (%) - 20-22 DAA ORYSA ‘Clearfield 171’” value ([1]; 32 g ae/ha) was 24% and the “Mean Visual Injury (%) - 20-22 DAA ORYSA ‘Wells’” value ([1]; 32 g ae/ha) was 12%. The pest or weed control at 140 g/ha ([2]; trial of Tables 3,4,6,10,12,14) was 98%, the pest or weed control at 140 g/ha ([2]; trial of Tables 5,9,11,13) was 96% and the “Mean Visual Injury (%) - 20-22 DAA ECHCG” value ([2]; 2 g ae/ha) was 57%. For the same molecule, the “Mean Visual Injury (%) - 20-22 DAA ECHCG” value ([2]; 4 g ae/ha) was 81%, the “Mean Visual Injury (%) - 20-22 DAA ECHCG” value ([2]; 8 g ae/ha) was 91% and the “Mean Visual Injury (%) - 20-22 DAA ECHCG” value ([2]; 16 g ae/ha) was 95%. For the same molecule, the “Mean Visual Injury (%) - 20-22 DAA ECHCG” value ([2]; 32 g ae/ha) was 96%.
With `COc1c(Cl)ccc(-c2nc(C(=O)OCc3ccccc3)c(Cl)c(N)c2F)c1F` [Benzyl] the Visual crop injury (%) at 140 g/ha ([1]; trial of Tables 3,4,6,10,12,14) was 13%, the Visual crop injury (%) at 140 g/ha ([1]; trial of Tables 5,9,11,13) was 15% and the “Visual Injury (%) - 21 DAA ORYSA-‘Clearfield 171’ Obs” value [1] was 0%. The “Visual Injury (%) - 21 DAA ORYSA-‘Neptune’ Obs” value [1] was 5%, the “Visual Injury (%) - 21 DAA ORYSA-‘Wells’ Obs” value [1] was 0% and the “Mean Visual Injury (%) - 20-22 DAA ORYSA ‘Clearfield 171’” value ([1]; 2 g ae/ha) was 0%. For the same molecule, the “Mean Visual Injury (%) - 20-22 DAA ORYSA ‘Wells’” value ([1]; 2 g ae/ha) was 0%, the “Mean Visual Injury (%) - 20-22 DAA ORYSA ‘Clearfield 171’” value ([1]; 4 g ae/ha) was 0% and the “Mean Visual Injury (%) - 20-22 DAA ORYSA ‘Wells’” value ([1]; 4 g ae/ha) was 0%. For the same molecule, the “Mean Visual Injury (%) - 20-22 DAA ORYSA ‘Clearfield 171’” value ([1]; 8 g ae/ha) was 0%, the “Mean Visual Injury (%) - 20-22 DAA ORYSA ‘Wells’” value ([1]; 8 g ae/ha) was 0% and the “Mean Visual Injury (%) - 20-22 DAA ORYSA ‘Clearfield 171’” value ([1]; 16 g ae/ha) was 8%. For the same molecule, the “Mean Visual Injury (%) - 20-22 DAA ORYSA ‘Wells’” value ([1]; 16 g ae/ha) was 3%, the “Mean Visual Injury (%) - 20-22 DAA ORYSA ‘Clearfield 171’” value ([1]; 32 g ae/ha) was 3% and the “Mean Visual Injury (%) - 20-22 DAA ORYSA ‘Wells’” value ([1]; 32 g ae/ha) was 3%. The pest or weed control at 140 g/ha ([2]; trial of Tables 3,4,6,10,12,14) was 98%, the pest or weed control at 140 g/ha ([2]; trial of Tables 5,9,11,13) was 99% and the “Mean Visual Injury (%) - 20-22 DAA ECHCG” value ([2]; 2 g ae/ha) was 63%. For the same molecule, the “Mean Visual Injury (%) - 20-22 DAA ECHCG” value ([2]; 4 g ae/ha) was 91%, the “Mean Visual Injury (%) - 20-22 DAA ECHCG” value ([2]; 8 g ae/ha) was 94% and the “Mean Visual Injury (%) - 20-22 DAA ECHCG” value ([2]; 16 g ae/ha) was 95%. For the same molecule, the “Mean Visual Injury (%) - 20-22 DAA ECHCG” value ([2]; 32 g ae/ha) was 96%.
